In PMC11351550, “Synthesis, Cytotoxicity and Antioxidant Activity Evaluation of Some Thiazolyl–Catechol Compounds” (Antioxidants, 2024):
Where a name gives a salt, the structure may show the parent alone.

Legend:
[1] = CUPRAC (CUPric-Reducing Antioxidant Capacity) assay; format: biochemical; details: 30 min, 450 nm
Experimental: (§1) The stock solutions of the reference antioxidants (ascorbic acid, Trolox, EDTA-Na2) and compounds 3a–j were prepared by dissolving the solid powders in DMSO, obtaining 2 mM stock solutions. Following this, an additional set of solutions (0.2 mM) for each compound was obtained by dilution with DMSO. Absorption spectra of the tested compounds covering the range from 400 nm to 800 nm were recorded, indicating no absorption peaks near the wavelengths employed in the experiments. All measurements in the presented assays were made against blank samples. To quantify the activity of the compounds 3a–j, for the antiradical assays (DPPH and ABTS) and ferrous ion chelation, IC50 was calculated using Equation (1), while for the electron transfer assays (TAC, RP, FRAP and CUPRAC), the reference number of mole equivalent activity for each compound was calculated using Equation (2). (1) radical scavenging (%)=control absorbance−sample absorbance/control absorbance×100 (2) equivalents of control=sample absorbance/control absorbance
The electron-donating capacity of compounds was assessed using the CUPRAC (CUPric-Reducing Antioxidant Capacity) method. The protocol for this assay is a modification of the reports of Alam et al., Özyürek et al., and Apak et al.. Volumes of 250 µL of CuCl2 10 mM, 1 mL of ammonium acetate buffer 1 M, and 250 µL of 7.5 mM neocuproine in ethanol were mixed with 125 µL of samples and reference compound solutions (0.2 mM). The mixtures were shaken for 30 min in the dark; after that, their absorbance was determined spectrophotometrically at λ = 450 nm.

[2] = Total Antioxidant Capacity (TAC) assay; format: biochemical; details: 95 °C, 1.5 h, 695 nm
Experimental: as §1
The Total Antioxidant Capacity (TAC) assay was conducted following the methodology outlined in our previous publication, which was based on initial reports from the literature. A volume of 10 mL of the reagent (0.6 M H2SO4, 28 mM Na3PO4 and 4 mM (NH4)6Mo7O24) and 1000 µL of the compound and standard solutions dispensed from the 2 mM stock solutions were mixed in sealed glass test tubes and incubated in a water bath at 95 °C for 1.5 h. After cooling the test tubes to room temperature, 1000 µL of each solution was diluted with 1000 µL of water. The absorbance of the solutions was then measured at λ = 695 nm.

[3] = tested on: human pulmonary malignant cells (A549); assay: Alamar Blue cytotoxicity assay, A549 cells; format: cell-based; details: for IC50: Homo sapiens, A549, 48 h exposure, Alamar Blue, read-out: IC50 (±SD) A549; for Selectivity Index: ratio between the calculated IC50 on BJ and A549 cells, 48 h
Experimental: (§2) BJ cells were maintained in Dulbecco’s modified Eagle’s medium (DMEM) with low glucose (1 g/L), while the A549 cells were seeded in DMEM with high glucose (5 g/L). All media were supplemented with 10% fetal bovine serum (FBS) and 1% Penicillin/Streptomycin. […] Cellular media were refreshed every other day. Cells were either subcultured or used in experiments once they reached a confluency of 80–90%.
(§3) The cytotoxicity of the synthesized compounds was evaluated by Alamar Blue (AB) assays performed on both cell lines, A549 and BJ, after a 48 h exposure, as previously reported.
(§4) Briefly, approximately 7000 A549 cells and 4000 normal BJ cells were seeded in 100 µL cellular media in 96-well plates to achieve a confluency of 70–80% at the end of the experiment and left to attach overnight before exposure. […] Post-exposure, the media were removed, and the AB assay was performed, with cells being incubated with a 200 µM solution of resazurin for 4 h. The obtained fluorescence was measured at λexcitation = 530/25; λemission = 590/35.
(§5) The experiments included three biological replicates, each one including three technical replicates. The negative control (NC) consisted of cells exposed to a cell culture medium containing 0.2% DMSO and was used for data normalization (100%).

[4] = Reducing power (RP) assay; format: biochemical; details: 50 °C, 20 min, pH 6.6
Experimental: as §1
In the reducing power (RP) assay, the tested compounds performed the reduction of ferric ions from potassium ferricyanide, forming ferrocyanide, which gives a blue complex. The protocol followed is an adaptation of previously reported methodologies. In glass test tubes, 1000 µL of solutions containing compounds and standards measured from the 0.2 mM stock solutions were mixed with 400 µL of phosphate buffer (0.2 M, pH = 6.6) and 400 µL of K3[Fe(CN)6] solution (1% w/v). The tubes were sealed and incubated for 20 min in a water bath at 50 °C. After cooling to room temperature, 500 µL of trichloroacetic acid (10% w/w) was added to all test tubes The resulting mixtures were left for 0.5 h at room temperature. Subsequently, 250 µL of the resulting solutions were mixed with 140 µL of FeCl3 solution (0.1% w/v) and 1000 µL of distilled water, and the absorbance of the resulting solutions was determined at λ = 695 nm.

[5] = Ferric-Reducing Antioxidant Potential (FRAP) assay; format: biochemical; details: pH 3.6, 593 nm
Experimental: as §1
The Ferric-Reducing Antioxidant Potential (FRAP) assay relies on the transfer of an electron from the antioxidant being assessed to Fe^3+, resulting in its conversion to Fe^2+. The resulting Fe^2+ ions are then chelated by 2,4,6-tripyridyl-s-triazine, giving a blue-colored complex, with an absorption maximum at λ = 593 nm. A 500 µL amount of the solutions (0.2 mM) of compounds and reference compounds was mixed with 600 µL FRAP reagent and 1200 µL acetate buffer (0.3 M, pH = 3.6), according to previous reports. The resulting solutions were mixed well in the dark, and their absorbance was measured spectrophotometrically.

[6] = tested on: normal human foreskin fibroblasts (BJ); assay: Alamar Blue cytotoxicity assay, BJ cells; format: cell-based; details: for IC50: Homo sapiens, Fibroblast, 48 h exposure, Alamar Blue
Experimental: as §2, §3, §4, §5

[7] = Ferrous ion chelation assay (ferrozine); format: biochemical; design: key: - represents negligible activity
Experimental: as §1
To evaluate the ability of compounds to chelate ferrous ions, an assay was performed using an adaptation of Dinis et al.’s initial report. The solutions of the tested compounds (2 mM) were mixed well with 500 µL of FeSO4 (0.125 mM), and 500 µL of ferrozine 0.315 mM. After 10 min, the absorbance of the samples was determined spectrophotometrically at λ = 562 nm. EDTA-Na2 was used as a positive control, due to its exceptional ion chelation properties.

[8] = DPPH radical-scavenging assay; format: biochemical; details: 30 min in the dark, 517 nm; read-out: IC50 against DPPH•
Experimental: as §1
The DPPH˙ (2,2-diphenyl-1-picrylhydrazyl) radical-scavenging assay, initially reported by Brand-Williams et al., relies on transferring a hydrogen atom from the antioxidant substrate being analyzed to the stable violet radical of DPPH˙. This action converts DPPH˙ into a nonradical stable yellow compound. The reduction in absorbance of the DPPH˙ at λ = 517 nm corresponds to the quantity of neutralized reagent. To perform the DPPH assay, we took 50, 75, 100, 125, and 150 µL of each sample from their 0.2 mM stock solutions, then we adjusted the volumes with DMSO to ensure all samples reached a uniform final volume. These solutions were mixed with 1 mL of DPPH reagent and incubated in the dark for 30 min, as presented in literature reports.

[9] = ABTS radical cation decolorization assay; format: biochemical; details: 10 min, pH 7.4, 734 nm; read-out: IC50 against ABTS•+
Experimental: as §1
The decolorization assay of the green ABTS^•+ (2,2′-azinobis-(3-ethylbenzothiazoline-6-sulfonic acid) to ABTS, based on the report of Re et al., was conducted following our group’s published report. The chemical stability of the ABTS^•+ reagent prior to use was checked at λ = 734 nm over one hour, ensuring a consistent absorption (approximately equal to 0.7). The reagent was prepared in potassium phosphate buffer (0.1 M, pH = 7.4) and activated overnight using MnO2 [17]. In all cuvettes, we added 100 μL of the tested compound solutions (0.2 mM) in increasing concentrations up to 200 µL and 2000 µL of the ABTS^•+ reagent. The resulting mixtures were thoroughly shaken for 10 min at room temperature, in the absence of light. The optical absorbance of the resulting mixtures was then measured by spectrophotometry at λ = 734 nm.

| SMILES | melting point [°C] | CUPRAC Eq Trolox [1] [Eq Trolox] | TAC Eq Ascorbic Acid [2] [Eq Ascorbic Acid] | IC50 [3] [µM] | Selectivity Index [3] | RP Eq Ascorbic Acid [4] [Eq Ascorbic Acid] | RP Eq Trolox [4] [Eq Trolox] | FRAP Eq Trolox [5] [Eq Trolox] | IC50 [6] [µM] | decrease of viability of BJ cells ([6]; highest tested dose, 48 h) | ferrous ion chelation percent ([7]; 0.25 µM) | ferrous ion chelation percent ([7]; 0.5 µM) | ferrous ion chelation percent ([7]; 1 µM) | ferrous ion chelation percent ([7]; 1.5 µM) | ferrous ion chelation percent ([7]; 2 µM) | IC50 [8] [µM] | IC50 [9] [µM] |
| --- | --- | --- | --- | --- | --- | --- | --- | --- | --- | --- | --- | --- | --- | --- | --- | --- | --- |
| Cc1cccc(-c2nc(-c3ccc(O)c(O)c3)cs2)c1 (as salt: hydrochloride) [Compound 3e, 4-(2-(m-tolyl)thiazol-4-yl)benzene-1,2-diol] | 196 |  |  |  |  |  |  |  |  |  |  |  |  |  |  |  |  |
| COc1cc(-c2nc(-c3ccc(O)c(O)c3)cs2)cc(OC)c1OC (as salt: hydrochloride) [Compound 3f, 4-(2-(3,4,5-trimethoxyphenyl)thiazol-4-yl)benzene-1,2-diol] | 219 |  |  |  |  |  |  |  |  |  |  |  |  |  |  |  |  |
| Oc1ccc(-c2csc(-c3ccncc3)n2)cc1O (as salt: hydrochloride) [Compound 3g, 4-(2-(pyridin-4-yl)thiazol-4-yl)benzene-1,2-diol] | 240 |  |  |  |  |  |  |  |  |  |  |  |  |  |  |  |  |
| Oc1ccc(-c2csc(-c3ccccn3)n2)cc1O (as salt: hydrochloride) [Compound 3h, 4-(2-(pyridin-2-yl)thiazol-4-yl)benzene-1,2-diol] | 230 |  |  |  |  |  |  |  |  |  |  |  |  |  |  |  |  |
| Oc1ccc(-c2csc(-c3csc(-c4ccccc4)n3)n2)cc1O (as salt: hydrochloride) [Compound 3i, 4-(2′-phenyl-[2,4′-bithiazol]-4-yl)benzene-1,2-diol] | 258 |  |  |  |  |  |  |  |  |  |  |  |  |  |  |  |  |
| Cc1ccc(-c2nc(-c3nc(-c4ccc(O)c(O)c4)cs3)cs2)cc1 (as salt: hydrochloride) [Compound 3j, 4-(2′-(p-tolyl)-[2,4′-bithiazol]-4-yl)benzene-1,2-diol] | 265 |  |  |  |  |  |  |  |  |  |  |  |  |  |  |  |  |
| Oc1ccc(-c2csc(-c3ccncc3)n2)cc1O [Compound 3g, 4-(2-(pyridin-4-yl)thiazol-4-yl)benzene-1,2-diol] |  | 3.60 | 0.64 | 7.34 | >13.62 | 2.04 | 1.69 | 1.63 | > 100 | approximately 20% | - | - | - | - | - | 36.7 | 7.59 |
| Oc1ccc(-c2csc(-c3ccccn3)n2)cc1O [Compound 3h, 4-(2-(pyridin-2-yl)thiazol-4-yl)benzene-1,2-diol] |  | 2.13 | 1.34 | 13.1 | 5.84 | 2.06 | 1.71 | 1.03 | 76.7 |  | - | - | - | - | - | 40.3 | 13.5 |
| Oc1ccc(-c2csc(-c3csc(-c4ccccc4)n3)n2)cc1O [Compound 3i, 4-(2′-phenyl-[2,4′-bithiazol]-4-yl)benzene-1,2-diol] |  | 1.84 | 0.51 | 5.18 | 5.67 | 1.63 | 1.35 | 1.14 | 29.4 |  | - | - | - | - | - | 45.9 | 14.1 |
| Cc1ccc(-c2nc(-c3nc(-c4ccc(O)c(O)c4)cs3)cs2)cc1 [Compound 3j, 4-(2′-(p-tolyl)-[2,4′-bithiazol]-4-yl)benzene-1,2-diol] |  | 1.61 | 0.36 | 4.28 | 5.67 | 1.81 | 1.50 | 1.06 | 24.2 |  | - | - | - | - | - | 49.6 | 17.7 |
